Here are results for 15 molecules from patent publication US20250059205A1, “Heterocyclic Compounds and Methods of Use” (AMGEN INC., priority 2021, published 2025).

The test system of assay [1] is Phosphorylation of ERK1/2 in AsPC-1 cells. The assay is described as follows: Phospho-ERK1/2 MSD Assay (AsPC-1 cells). The note with it: Homo sapiens, ASPC1, 2 h, 2 hours treatment, read-out: p-ERK (AsPC-1 cells) IC50. Format: cell-based. In outline:
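Read-out: MSD electrochemiluminescent detection of phosphorylated ERK1/2 in whole-cell lysates, fitted to a 4-parameter logistic curve for IC50. Prior to lysis, AsPC-1 cells (25,000 per well) received a 2 h compound dose-response at 37 °C.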

The subject of assay [2] is Phosphorylation of ERK1/2 in A-427 cells. The assay is described as follows: Phospho-ERK1/2 MSD Assay (A-427 cells). The note with it: Homo sapiens, A-427, 2 h, 2 h treatment, read-out: p-ERK (A427 cells) IC50. Format: cell-based. In outline:
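ERK1/2 phosphorylation measured by Meso Scale whole-cell lysate assay after A-427 cells were exposed to a titration of compound for 2 h at 37 °C.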

Assay [3] has as its target His-tagged KRAS G12D protein (Homo sapiens, UniProt P01116, G12D). As to the kind of experiment: KRAS G12D TR-FRET Assay. Format: binding. (Time-resolved FRET reads energy transfer from a long-lived donor to a nearby acceptor.)
For assay [4], the target named is GDP-bound KRAS protein (aa 1-169), containing both G12D and C118A amino acid substitutions (Homo sapiens, UniProt P01116, C118A/G12D). As to the kind of experiment: KRAS G12D Coupled Nucleotide Exchange Assay. Format: biochemical. The note with it: 2 h compound pre-incubation. How it is done: Following compound pre-incubation, purified SOS protein (aa 564-1049) and GTP (Roche 10106399001) were added to the assay wells and incubated for an additional 30 min. […] The assay plates were then read on a PerkinElmer EnVision Multilabel Reader, using AlphaScreen® technology, and data were analyzed using a 4-parameter logistic model to calculate IC50 values.
Chain of GDP-bound KRAS protein (aa 1-169), containing both G12D and C118A amino acid substitutions (P01116 1-169 isoform P01116-2 G12D/C118A): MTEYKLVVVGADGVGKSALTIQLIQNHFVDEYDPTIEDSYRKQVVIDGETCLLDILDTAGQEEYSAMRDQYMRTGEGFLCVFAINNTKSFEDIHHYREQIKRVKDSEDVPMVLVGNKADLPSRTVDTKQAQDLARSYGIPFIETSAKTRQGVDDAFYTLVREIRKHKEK

Chain of His-tagged KRAS G12D protein (P01116 1-188 isoform P01116-2 G12D): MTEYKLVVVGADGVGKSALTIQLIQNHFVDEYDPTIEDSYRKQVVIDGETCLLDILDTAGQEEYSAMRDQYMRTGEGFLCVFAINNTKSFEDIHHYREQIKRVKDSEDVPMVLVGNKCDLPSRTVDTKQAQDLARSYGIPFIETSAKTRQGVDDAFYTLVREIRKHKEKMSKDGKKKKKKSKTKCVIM

For `Cc1ccc2cnn(C)c2c1-c1c(Cl)cc2c(N3C[C@H]4CC[C@@H](C3)N4)nc(OC[C@@]34CCCN3C[C@H](F)C4)nc2c1F` [Example 76, 4-((1R,5S)-3,8-diazabicyclo[3.2. 1]octan-3-yl)-6-chloro-7-(1,6-dimethyl-1H-indazol-7-yl)-8-fluoro-2-(((2R,7aS)-2-fluorotetrahydro-1H-pyrrolizin-7a(5H)-yl)methoxy) quinazoline], the IC50 (usually the point on the concentration scale where inhibition reaches its midpoint) in assay [1] is 674 nM; in assay [2] it was 191 nM; in assay [3], 10 nM. The “Avg 2 h Coupled Exchange IC50” value in assay [4] was 8 nM.
The like results for `Oc1cc(-c2ccc3c(N4C[C@H]5CC[C@@H](C4)N5)nc(OC[C@@]45CCCN4C[C@H](F)C5)nc3c2)c2c(F)c(F)ccc2c1` [Example 77, 4-(4-((1R,5S)-3,8-diazabicyclo[3.2. 1]octan-3-yl)-2-(((2R,7aS)-2-fluorotetrahydro-1H-pyrrolizin-7a(5H)-yl)methoxy)quinazolin-7-yl)-5,6-difluoronaphthalen-2-ol] were, in that order, 62 nM, 38 nM, 3 nM and 2 nM.
The like results for `Fc1c(-c2cc(Cl)cc3ccccc23)c(Cl)cc2c(N3C[C@H]4CC[C@@H](C3)N4)nc(OC[C@@]34CCCN3C[C@H](F)C4)nc12` [Example 78, 4-((1R,5S)-3,8-diazabicyclo[3.2. 1]octan-3-yl)-6-chloro-7-(3-chloronaphthalen-1-yl)-8-fluoro-2-(((2R,7aS)-2-fluorotetrahydro-1H-pyrrolizin-7a(5H)-yl)methoxy) quinazoline] were, in that order, 6030 nM, above 10000 nM, 226 nM and 90 nM.
On the same counts, the results for `Fc1c(-c2ccc(Cl)c3ccccc23)c(Cl)cc2c(N3C[C@H]4CC[C@@H](C3)N4)nc(OC[C@@]34CCCN3C[C@H](F)C4)nc12` [Example 79, 4-((1R,5S)-3,8-diazabicyclo[3.2. 1]octan-3-yl)-6-chloro-7-(4-chloronaphthalen-1-yl)-8-fluoro-2-(((2R,7aS)-2-fluorotetrahydro-1H-pyrrolizin-7a(5H)-yl)methoxy) quinazoline] are 3430 nM, above 10000 nM, 26 nM and 26 nM.
For `Oc1ccc(-c2c(Cl)cc3c(N4C[C@H]5CC[C@@H](C4)N5)nc(OC[C@@]45CCCN4C[C@H](F)C5)nc3c2F)c2ccccc12` [Example 80, 4-(4-((1R,5S)-3,8-diazabicyclo[3.2. 1]octan-3-yl)-6-chloro-8-fluoro-2-(((2R,7aS)-2-fluorotetrahydro-1H-pyrrolizin-7a(5H)-yl)methoxy)quinazolin-7-yl)naphthalen-1-ol], the IC50 turned out to be 607 nM in assay [1], 649 nM in assay [2] and 10 nM in assay [3]. Further, the “Avg 2 h Coupled Exchange IC50” value in assay [4] worked out at 4 nM.
The like results for `Oc1cc(-c2c(Cl)cc3c(N4C[C@H]5CC[C@@H](C4)N5)nc(OC[C@@]45CCCN4C[C@H](F)C5)nc3c2F)c2c(F)c(F)ccc2c1` [Example 81, 4-(4-((1R,5S)-3,8-diazabicyclo[3.2. 1]octan-3-yl)-6-chloro-8-fluoro-2-(((2R,7aS)-2-fluorotetrahydro-1H-pyrrolizin-7a(5H)-yl)methoxy)quinazolin-7-yl)-5,6-difluoronaphthalen-2-ol] were, in that order, 99 nM, 30 nM, 3 nM and 4 nM.
On the same counts, the results for `Oc1cc(-c2cc3nc(OC[C@@]45CCCN4C[C@H](F)C5)nc(N4C[C@H]5CC[C@@H](C4)N5)c3cc2F)c2c(F)c(F)ccc2c1` [Example 82, 4-(4-((1R,5S)-3,8-diazabicyclo[3.2. 1]octan-3-yl)-6-fluoro-2-(((2R,7aS)-2-fluorotetrahydro-1H-pyrrolizin-7a(5H)-yl)methoxy)quinazolin-7-yl)-5,6-difluoronaphthalen-2-ol] are 138 nM, 42 nM, 2 nM and 2 nM.
`CCc1c(F)ccc2cc(O)cc(-c3cc4nc(OC[C@@]56CCCN5C[C@H](F)C6)nc(N5C[C@H]6CC[C@@H](C5)N6)c4cc3F)c12` [Example 83, 4-(4-((1R,5S)-3,8-diazabicyclo[3.2. 1]octan-3-yl)-6-fluoro-2-(((2R,7aS)-2-fluorotetrahydro-1H-pyrrolizin-7a(5H)-yl)methoxy)quinazolin-7-yl)-5-ethyl-6-fluoronaphthalen-2-ol]: the IC50 in assay [1] worked out at 77 nM; in assay [2], 28 nM; in assay [3], 3 nM. Moreover, the “Avg 2 h Coupled Exchange IC50” value in assay [4] was 2 nM.
As for `Oc1cc(-c2c(F)cc3c(N4C[C@H]5CC[C@@H](C4)N5)nc(OC[C@@]45CCCN4C[C@H](F)C5)nc3c2F)c2c(F)c(F)ccc2c1` [Example 84, 4-(4-((1R,5S)-3,8-diazabicyclo[3.2. 1]octan-3-yl)-6,8-difluoro-2-(((2R,7aS)-2-fluorotetrahydro-1H-pyrrolizin-7a(5H)-yl)methoxy)quinazolin-7-yl)-5,6-difluoronaphthalen-2-ol], the IC50 was 22 nM in assay [1], 5 nM in assay [2] and 4 nM in assay [3]. In addition, the “Avg 2 h Coupled Exchange IC50” value in assay [4] came to 4 nM.
On to `Oc1cc(-c2cc3nc(OC[C@@]45CCCN4C[C@H](F)C5)nc(N4C[C@H]5CC[C@@H](C4)N5)c3cc2F)c2c(Cl)cccc2c1` [Example 85, 4-(4-((1R,5S)-3,8-diazabicyclo[3.2. 1]octan-3-yl)-6-fluoro-2-(((2R,7aS)-2-fluorotetrahydro-1H-pyrrolizin-7a(5H)-yl)methoxy)quinazolin-7-yl)-5-chloronaphthalen-2-ol], for which the IC50 was determined as 273 nM in assay [1], 64 nM in assay [2] and 4 nM in assay [3]. The “Avg 2 h Coupled Exchange IC50” value in assay [4] turned out to be 1 nM.
With `Oc1cc(-c2c(Cl)cc3c(N4C[C@H]5CC[C@@H](C4)N5)nc(OC[C@@]45CCCN4C[C@H](F)C5)nc3c2F)c2c(Cl)cccc2c1` [Example 86, 4-(4-((1R,5S)-3,8-diazabicyclo[3.2. 1]octan-3-yl)-6-chloro-8-fluoro-2-(((2R,7aS)-2-fluorotetrahydro-1H-pyrrolizin-7a(5H)-yl)methoxy)quinazolin-7-yl)-5-chloronaphthalen-2-ol], the IC50 stood at 149 nM in assay [1], 54 nM in assay [2] and 4 nM in assay [3]. Besides, in assay [4], the “Avg 2 h Coupled Exchange IC50” value was found to be 2 nM.
For the molecule `CCc1c(F)ccc2cc(O)cc(-c3ccc4c(N5C[C@H]6CC[C@@H](C5)N6)nc(OC[C@@]56CCCN5C[C@H](F)C6)nc4c3F)c12` [Example 87, 4-(4-((1R,5S)-3,8-diazabicyclo[3.2. 1]octan-3-yl)-8-fluoro-2-(((2R,7aS)-2-fluorotetrahydro-1H-pyrrolizin-7a(5H)-yl)methoxy)quinazolin-7-yl)-5-ethyl-6-fluoronaphthalen-2-ol], the figures for the IC50 in assay [1], in assay [2] and in assay [3] were 16 nM, 6 nM and 7 nM, respectively. The “Avg 2 h Coupled Exchange IC50” value in assay [4] was found to be 10 nM.
On the same counts, the results for `CCc1c(F)ccc2cc(O)cc(-c3c(F)cc4c(N5C[C@H]6CC[C@@H](C5)N6)nc(OC[C@@]56CCCN5C[C@H](F)C6)nc4c3F)c12` [Example 88, 4-(4-((1R,5S)-3,8-diazabicyclo[3.2. 1]octan-3-yl)-6,8-difluoro-2-(((2R,7aS)-2-fluorotetrahydro-1H-pyrrolizin-7a(5H)-yl)methoxy)quinazolin-7-yl)-5-ethyl-6-fluoronaphthalen-2-ol] are 9 nM, 3 nM, 4 nM and 4 nM.
On the same counts, the results for `CCc1c(F)ccc2cc(O)cc(-c3c(F)cc4c(N5C[C@H]6CC[C@@H](C5)N6)nc(OC[C@@H]5C[C@@H](F)CN5C)nc4c3F)c12` [Example 89, 4-(4-((1R,5S)-3,8-diazabicyclo[3.2. 1]octan-3-yl)-6,8-difluoro-2-(((2S,4R)-4-fluoro-1-methylpyrrolidin-2-yl)methoxy)quinazolin-7-yl)-5-ethyl-6-fluoronaphthalen-2-ol] are 137 nM, 80 nM, 4 nM and 4 nM.
On to `CCc1c(F)ccc2cccc(-c3ccc4c(N5C[C@H]6CC[C@@H](C5)N6)nc(OC[C@@]56CCCN5C[C@H](F)C6)nc4c3F)c12` [Example 90, 4-((1R,5S)-3,8-diazabicyclo[3.2. 1]octan-3-yl)-7-(8-ethyl-7-fluoronaphthalen-1-yl)-8-fluoro-2-(((2R,7aS)-2-fluorotetrahydro-1H-pyrrolizin-7a(5H)-yl)methoxy) quinazoline], for which the IC50 in assay [1] was 790 nM; in assay [2], 454 nM; in assay [3] it was 4 nM. Moreover, the “Avg 2 h Coupled Exchange IC50” value in assay [4] is 3 nM.
